molecular target: kappa opioid receptor (KOR) (Homo sapiens, UniProt P41145); test: GTPγS assay, antagonism of U69, […], concentration-response; type: biochemical
Sequence (P41145 whole entry): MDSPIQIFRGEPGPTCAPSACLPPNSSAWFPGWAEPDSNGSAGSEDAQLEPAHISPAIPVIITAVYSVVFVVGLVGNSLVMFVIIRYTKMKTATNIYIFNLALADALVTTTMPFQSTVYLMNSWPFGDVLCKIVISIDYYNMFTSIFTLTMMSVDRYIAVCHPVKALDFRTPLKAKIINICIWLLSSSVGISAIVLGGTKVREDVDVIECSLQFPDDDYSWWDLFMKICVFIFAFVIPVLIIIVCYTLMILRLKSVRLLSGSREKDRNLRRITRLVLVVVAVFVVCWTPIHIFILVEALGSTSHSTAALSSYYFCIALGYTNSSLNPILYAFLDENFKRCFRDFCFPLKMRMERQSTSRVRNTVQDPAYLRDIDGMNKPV

SMILES	IC50 [nM]
COc1ccc(N2CCN(CCCNC(=O)CN3C(=O)C4CCCCN4c4cc(C)cnc43)CC2)cc1 (racemic) [compound 28, N-(3-(4-(4-Methoxyphenyl)piperazin-1-yl)propyl)-2-(2-methyl-6-oxo-6,6a,7,8,9,10-hexahydro-5H-dipyrido[1,2-a:2′,3′-e]pyrazin-5-yl)acetamide]	906
COc1ccc(N2CCN(CCCNC(=O)CN3C(=O)[C@@H]4CCCN4c4c(C)ccnc43)CC2)cc1 [compound 26, (S)-N-(3-(4-(4-Methoxyphenyl)piperazin-1-yl)propyl)-2-(1-methyl-6-oxo-6a,7,8,9-tetrahydropyrido[2,3-e]pyrrolo[1,2-a]pyrazin-5(6H)-yl)acetamide]	2820
COc1ccc(N2CCN(CCCNC(=O)CN3C(=O)[C@@H]4CCCN4c4cc(C)cnc43)CC2)cc1 [compound 27, (S)-N-(3-(4-(4-Methoxyphenyl)piperazin-1-yl)propyl)-2-(2-methyl-6-oxo-6a,7,8,9-tetrahydropyrido[2,3-e]pyrrolo[1,2-a]pyrazin-5(6H)-yl)acetamide]	2620
COc1ccc(N2CCN(CCCNC(=O)CN3C(=O)[C@H](CC(C)C)Nc4cc(C)cnc43)CC2)cc1 [compound 29, (S)-2-(2-Isobutyl-7-methyl-3-oxo-2,3-dihydropyrido[2,3-b]-pyrazin-4(1H)-yl)-N-(3-(4-(4-methoxyphenyl)piperazin-1-yl)propyl)-acetamide]	433

— paper PMC5278949 (The Journal of organic chemistry, 2016)
